{"source": "patent US20110118353A1", "about": "“METHOD OF HORMONE SUPPRESSION IN HUMANS” (N. V. Organon, priority 2007, published 2011)", "format_in_all_cases": "in vivo, human", "key": {"LH [1]": {"system": "LH", "experiment": "Experiment 1: single rising oral dose trial, serum LH (DELFIA)", "conditions": "healthy male volunteers, single oral doses 0.5-30 mg, 0 to 12 hours post-dose, vs placebo", "protocol": "(§1) A double-blind, cross-over, placebo controlled, single rising oral dose trial with compound 1 was carried out in healthy male volunteers to assess its tolerability, safety, pharmacokinetic and pharmacodynamic profile.\n(§2) This was a double-blind, placebo-controlled, single rising oral dose study in 16 subjects. Each subject was assigned to one of 4 dosing groups and received 3 successive single oral doses of compound 1 and placebo in a four-way cross-over design. Subjects were male volunteers with a good physical and mental health, aged 18-45 years, body mass index […]. […]\n(§3) LH and FSH were measured using a DELFIA assay. […] Testosterone was measured using a DELFIA testosterone assay; a solid phase fluoro-immuno-assay based on competition between Europium-labeled Testosterone and sample Testosterone.\n(§4) Effect of treatment was characterised by calculating areas under the effect curve (AUE) over 0-4 h and 0-final assessment time periods. AUEs were calculated with the linear trapezoidal rule using protocol times. […] All measures were analysed using analysis of variance with factors subject and treatment and with the prevalue as covariate. A linear contrast on dose group was calculated with dose groups assigned in ascending order."}, "FSH [2]": {"system": "FSH", "experiment": "Experiment 1: single rising oral dose trial, serum FSH (DELFIA)", "conditions": "healthy male volunteers, single oral doses 0.5-30 mg, 0-12 h period; slower than LH", "protocol": "as §1, §2, §3, §4"}, "testosterone [3]": {"system": "testosterone", "experiment": "Experiment 1: single rising oral dose trial, serum testosterone (DELFIA)", "conditions": "healthy male volunteers, single oral doses 0.5-30 mg, 0-12 h period; slower than LH", "protocol": "as §1, §2, §3, §4"}, "LH [4]": {"system": "LH", "experiment": "Experiment 2: single-dose crossover trial, serum LH (DELFIA)", "conditions": "healthy male volunteers, single oral doses 5, 13, 20 mg", "text": "(§5) A single-dose, double-blind, placebo-controlled, randomized, crossover trial to evaluate visual effects of compound 1 in healthy male volunteers\n(§6) This was a double-blind, placebo-controlled, four-period crossover study involving the administration of three single oral doses of compound 1 and placebo in 24 healthy male subjects. For each subject the compound 1 treatments were randomized in ascending order, each treatment period was separated by at least 3 days wash-out. Subjects were male volunteers with a good physical and mental health, aged 18-45 years, body mass index 18-28 kg/m^2.\n(§7) A freeze dried cake of compound 1 (Batch No CW122) was reconstituted with de-ionized water BP and subsequently diluted with gelatin/mannitol to 50 mL solution for oral administration. Dose levels of compound 1 used in this trial were: 5 mg, 13 mg and 20 mg\n(§8) Serum samples for LH, FSH and testosterone analysis were taken at time points: pre-dose and 20′, 45′, 1h10′, 1h35′, 2h, 2h25′, 2h50′, 3h15′, 4h, 6h, 8h, 12h, 16h and 24h post-dose. Serum was stored at −40° C.\n(§9) LH and FSH were measured using a DELFIA assay. The DELFIA LH and DELFIA FSH assays are solid phase, two-site fluoroimmunometric assays based on the direct sandwich technique. Testosterone was measured using a DELFIA testosterone assay; a solid phase fluoro-immuno-assay based on competition between Europium-labeled Testosterone and sample Testosterone.\n(§10) Descriptive statistics for serum FSH, LH and testosterone concentrations were calculated, both as absolute values and as percentage of baseline. In addition the following parameters were calculated: Cmin, tmin, Cmean,0-24, both Cmin and Cmean,0-24 were expressed in absolute values and as percentage of baseline. No formal statistical analysis was done on these PD parameters. Only descriptive statistics were calculated by dose. Furthermore, summary plots of the PD parameters versus treatment were made"}, "FSH [5]": {"system": "FSH", "experiment": "Experiment 2: single-dose crossover trial, serum FSH (DELFIA)", "conditions": "healthy male volunteers, single oral doses 5, 13, 20 mg", "text": "as §5, §6, §7, §8, §9, §10"}, "testosterone [6]": {"system": "testosterone", "experiment": "Experiment 2: single-dose crossover trial, serum testosterone (DELFIA)", "conditions": "healthy male volunteers, single oral doses 5, 13, 20 mg", "text": "as §5, §6, §7, §8, §9, §10"}, "LH [7]": {"system": "LH", "experiment": "Experiment 3: multiple oral dose study, serum LH (DELFIA)", "conditions": "healthy male volunteers, 4, 8, 16 mg q.d. or 12 mg b.i.d. oral", "text": "(§11) A phase I, double-blind, placebo-controlled, parallel group, multiple oral dose and multiple ascending dose study with compound 1 in healthy male volunteers to assess the safety, tolerability, pharmacokinetics and pharmacodynamics of compound 1 after single, multiple and multiple ascending doses.\n(§12) This was a single center, double-blind, placebo-controlled, parallel group design. A total of 40 subjects were randomized over 5 groups of 8 subjects; within each group 6 subjects received multiple oral doses of compound 1 and 2 subjects received placebo. Subjects were male volunteers with a good physical and mental health, aged 18-45 years, body mass index 18-28 kg/m^2.\n(§13) Freeze dried cake of compound 1 (Batch No. CW 186) was supplied in 10 mL vials (50 mg active entity in 10 mL vials). The freeze dried cake was reconstituted with sterile de-ionized water B.P and subsequently diluted with sterile de-ionized water to a dose volume of 50 mL. […]\n(§14) LH and FSH were measured using a DELFIA assay. […] Testosterone was measured using a DELFIA testosterone assay; a solid phase fluoro-immuno-assay based on competition between Europium-labeled Testosterone and sample Testosterone. […]"}, "FSH [8]": {"system": "FSH", "experiment": "Experiment 3: multiple oral dose study, serum FSH (DELFIA)", "conditions": "healthy male volunteers, 4, 8, 16 mg q.d. or 12 mg b.i.d. oral", "text": "as §11, §12, §13, §14"}, "testosterone [9]": {"system": "testosterone", "experiment": "Experiment 3: multiple oral dose study, serum testosterone (DELFIA)", "text": "as §11, §12\nFreeze dried cake of compound 1 (Batch No. CW 186) was supplied in 10 mL vials (50 mg active entity in 10 mL vials). The freeze dried cake was reconstituted with sterile de-ionized water B.P and subsequently diluted with sterile de-ionized water to a dose volume of 50 mL. Compound 1 was administered as an oral solution (50 mL) according to the following schedule: • Group 1: a single dose of 4 mg compound 1 on day 1 followed by once daily dosing of 4 mg compound 1 on days 4 to 13 • Group 2: a single dose of 8 mg compound 1 on day 1 followed by once daily dosing of 8 mg compound 1 on days 4 to 13 • Group 3: a single dose of 16 mg compound 1 on day 1 followed by once daily dosing of 16 mg compound 1 on days 4 to 13 • Group 4: a single dose of 12 mg compound 1 on day 1, twice daily dosing of 12 mg compound 1 on days 4 to 12 followed by a single dose of 16 mg compound 1 on day 13\nFor group 5 a dose titration was used. In this group no samples for LH, FSH and testosterone were taken. […]\nas §14"}, "LH [10]": {"system": "LH", "experiment": "Experiment 4: single oral dose pharmacodynamic study, serum LH (DELFIA)", "conditions": "healthy male volunteers, single oral doses 4, 8, 16 mg", "text": "(§15) A phase I, double-blind, parallel groups, placebo-controlled, cross-over, pharmacodynamic study with compound 1 in healthy male volunteers to assess glycinergic responses in cerebro-spinal fluid and plasma after single oral doses\n(§16) This was a double-blind, placebo-controlled, parallel group trial in 15 subjects, randomized to 3 parallel groups of 5 subjects each. The subjects received two single doses in a randomized cross-over design. There was an interval of at least 3 days between the drug administrations. Subjects were male volunteers with a good physical and mental health, aged 18-45 years, body mass index 18-28 kg/m^2.\n(§17) A freeze dried cake of compound 1 (Batch No CW122) was reconstituted with sterile water and subsequently further diluted with orange juice to a total volume of 200 mL for oral administration. Dose levels used were: • Group 1: 8 mg compound 1 and […] • Group 2: 16 mg compound 1 and placebo • Group 3: 8 mg compound 1 and 4 mg compound 1\n(§18) Serum samples for LH, FSH and testosterone analysis were taken at time points: pre-dose and 1, 2, 3, 4, 6 and 12 hours post dose. Serum was stored at −40° C.\nas §3"}, "FSH [11]": {"system": "FSH", "experiment": "Experiment 4: single oral dose pharmacodynamic study, serum FSH (DELFIA)", "conditions": "healthy male volunteers, single oral doses 4, 8, 16 mg", "text": "as §15, §16, §17, §18, §3"}, "testosterone [12]": {"system": "testosterone", "experiment": "Experiment 4: single oral dose pharmacodynamic study, serum testosterone (DELFIA)", "conditions": "healthy male volunteers, single oral doses 4, 8, 16 mg", "text": "as §15, §16, §17, §18, §3"}, "[13]": {"conditions": "0-24 h, compared with adjusted Cmin"}, "[14]": {"conditions": "decrease generally largest after 16 mg"}}, "data": [{"smiles": "COc1ccc2c(c1)CC[C@H](CN(C)CC(=O)O)[C@@H]2c1ccccc1.Cl", "note": "[compound 1]", "values": [{"measurement": "treatment effect on LH levels (decrease)", "setting": "LH [1]", "result": "statistically significant treatment effect"}, {"measurement": "FSH concentrations, linear contrast on dose", "setting": "FSH [2]", "result": "significant linear decreases with rising doses"}, {"measurement": "testosterone concentrations, linear contrast on dose", "setting": "testosterone [3]", "result": "significant linear decreases with rising doses"}, {"measurement": "adjusted Cmin LH", "setting": "LH [4]", "result": "decrease with increasing active dose"}, {"measurement": "time of largest LH decrease post dose", "setting": "LH [4]", "result": "approximately 4 h"}, {"measurement": "adjusted Cmean LH", "setting": "LH [4]; [13]", "result": "decreases are smaller and less consistent"}, {"measurement": "LH concentrations after treatment", "setting": "LH [4]; decreases larger at increasing doses", "result": "decrease after compound 1 treatment"}, {"measurement": "adjusted Cmin FSH", "setting": "FSH [5]", "result": "decrease with increasing active dose"}, {"measurement": "effect on FSH concentrations", "setting": "FSH [5]", "result": "not clearly visible"}, {"measurement": "adjusted Cmean FSH", "setting": "FSH [5]; [13]", "result": "decreases are smaller and less consistent"}, {"measurement": "adjusted Cmin Testosterone", "setting": "testosterone [6]", "result": "decrease with increasing active dose"}, {"measurement": "adjusted Cmean testosterone", "setting": "testosterone [6]; [13]", "result": "decreases are smaller and less consistent"}, {"measurement": "testosterone concentrations after treatment", "setting": "testosterone [6]; decreases larger at increasing doses, somewhat slower than LH", "result": "decrease after compound 1 treatment"}, {"measurement": "time of maximum decreases in LH after dosing", "setting": "LH [7]", "result": 2, "unit": "h"}, {"measurement": "mean LH values", "setting": "LH [7]; [14]", "result": "decreased following dosing"}, {"measurement": "time of maximum decrease in FSH values post-dose", "setting": "FSH [8]", "result": "6 to 12", "unit": "h"}, {"measurement": "mean FSH values", "setting": "FSH [8]; [14]", "result": "decreased following dosing"}, {"measurement": "time post-dose until which testosterone levels dropped", "setting": "testosterone [9]; healthy male volunteers, 4, 8, 16 mg q.d. or 12 mg b.i.d. oral", "result": "6 to 12", "unit": "h"}, {"measurement": "testosterone levels after dosing", "setting": "testosterone [9]; healthy male volunteers, 4, 8, 16 mg q.d. or 12 mg b.i.d. oral, partly circadian rhythm, afterwards back to approximately baseline", "result": "dropped sharply after dosing"}, {"measurement": "magnitude of the testosterone decrease compared with placebo", "setting": "testosterone [9]; largest decreases in the 16 mg q.d. and 12 mg b.i.d groups", "result": "generally larger following administration of compound 1"}, {"measurement": "LH suppression", "setting": "LH [10]", "result": "suppressed to some extent"}, {"measurement": "effect on FSH", "setting": "FSH [11]", "result": "No effect"}, {"measurement": "testosterone suppression", "setting": "testosterone [12]", "result": "suppressed to some extent"}]}]}
